Experimental findings from patent US20250163016A1, “PYRIDINE DERIVATIVE, PREPARATION METHOD THEREFOR AND USE THEREOF” (CHENGDU EASTON BIOPHARMACEUTICALS CO., LTD., priority 2022, published 2025) are described below.

In series [1] the test system is NCI-H1417 cells. As to the kind of experiment: NCI-H1417 cell proliferation inhibition test (Celltiter GLO). Particulars: Homo sapiens, 168 h, NCI-H1417, 7 days culture. Type of series: cell-based. The procedure: Research had confirmed that LSD1 played a crucial role in the occurrence process of various types of cancers, including small cell lung cancer (SCLC) and acute myeloid leukemia (AML). Therefore, a human small cell lung cancer (NCI-H1417) cell line was used to determine the ATP content in cells at different drug concentrations using a Celltiter GLO assay kit, and the cell activity was reflected by luminescence intensity. IC50 values of different compounds on the NCI-H1417 cells were calculated using inhibition rates. The inhibitory effects of the compounds in the present application on the proliferation of the NCI-H1417 cells were studied to evaluate the anti-tumor efficacy of the tested compounds at the cellular level.
• Day 1 Cells were seeded into the 384-well cell culture plate and placed in a 37° C. 5% CO2 cell incubator to be cultured overnight. • Day 0 The compound to be tested was prepared into a 10 mM mother liquid using DMSO, starting from 1 μM, diluted by 3 folds, with 10 concentration points and double duplicate wells. A diluted compound was added into the 384-well cell culture plate and placed in a 37° C. 5% CO2 cell incubator to be cultured for 7 days. The concentration of the DMSO in a cell culture system was 0.1%. • Day 7 Celltiter GLO was added into the 384-well cell culture plate according to a volume ratio of culture system:Celltiter GLO=1:1, light-shielded oscillation was carried out on a plate oscillator for 3 min, then the cell culture plate was placed at the room temperature for 30 min with light shielded, and the plate was read using a multifunctional microplate reader chemical light emitting module.
An inhibition percentage was calculated by utilizing luminescence intensity of the above DMSO group (with DMSO added), test group (with the tested compound and a positive control solution added) and blank group (not treating cells), a calculation formula being
Using a logarithm of the concentration as an X axis and the percentage inhibition rate as a Y axis, a dose-response curve was fitted using a formula log(inhibitor) vs. response-Variable slope (Four parameters) of analysis software Graphpad Prism 8 to obtain the IC50 value of each compound on NCI-H1417 proliferation inhibition activity.
On the technique in general: ATP-based viability assays read luminescence as a measure of living cells.

Series [2] can be described thus: Pharmacokinetics of oral administration of rats. Type of series: in vivo. Particulars: male, rat, SD rats, p.o. 5.0 mg/kg, plasma. The procedure:
With SD rats as tested animals, blood drug concentrations in plasma at different moments after oral administration of the compounds of the present application by the rats in a clarification kit mode were determined using an LC-MS/MS method. Pharmacokinetic parameters of the compounds of the present application in the rats were obtained, and pharmacokinetic characteristics of the compounds were studied.
• SD rats, male, weight 180-220 g, 3 rats per group. The animals were fed in an animal house after being purchased, an adaptation period was at least 3 days, and they were used for tests after passing quarantine.
According to Table 4, each group of rats was given the corresponding tested drugs or positive drugs by gavage, before administration, and 15 min, 30 min, 1 h, 2 h, 4 h, 6 h, 8 h, and 24 h after administration, a fixed volume of blood was collected through eye sockets and placed in an EDTA-K2 anticoagulant tube, centrifuging was carried out at 8000 rpm for 1 min to separate plasma into a centrifuge tube, and the plasma was frozen in a −20° C. refrigerator.
The plasma at each time point stored at −20° C. was taken out, then acetonitrile was added, after whirling at 1500 revolutions for 2 min, centrifuging was carried out for 15 min (3500 r/min), and a fixed volume of solution supernatant was taken for LC-MS/MS analysis.
Non-compartment model fitting was carried out on pharmacokinetic behaviors of the tested compounds, and DAS3.31 software was adopted to calculate main pharmacokinetic parameters (T1/2, Tmax, Cmax, AUClast, etc.).

Series [3] can be described thus: Liver microsome stability, humans. Type of series: in vitro ADME. Particulars: Humans liver microsomes; for CLint scaled / half-life: human; for half-life: NADPH, 37° C. The protocol:
(§1) A liver microsome in-vitro warm incubation method used liver microsomes, supplemented by an NADPH regeneration system, to simulate physiological environmental conditions in vitro for metabolic reaction, after a certain period of reaction, LC-MS/MS was used to determine prototype drugs and metabolites in a warm incubation solution, and the content was preliminarily analyzed. Studying the liver microsome stability of drugs in different species was crucial for understanding a change process of the drugs in vivo.
(§2) 2.1. Liver Microsomes in Different Species Including Rats, Mice, Humans, Dogs and Monkeys
(§3) According to the requirements of the instructions of a Phase I Metabolic Stability Kit, a liver microsome incubation system was prepared, and according to a sequence, a mixed system of a PBS, liver microsomes, an NADPH regeneration system solution A and an NADPH regeneration system solution B, as well as substances to be tested were added in sequence respectively, and were incubated at 37° C. Each sample was parallelized 3 times, with a sample without an NADPH generation system as a negative control, after 0, 5, 15, 30, 45, and 60 min, equal volumes of pre-cooled acetonitrile were added to terminate the reaction respectively, and the prototype drug content in a warm incubation solution was determined by LC-MS/MS.
(Microsomes from liver hold many membrane-bound enzymes, among them those of drug oxidation.)

Series [4] is described as follows: Liver microsome stability, rats. Type of series: in vitro ADME. Particulars: Rats liver microsomes; for CLint scaled / half-life: rat; for half-life: NADPH, 37° C. The protocol: as §1, §2, §3
The nature of series [5]: Liver microsome stability, mice. The series is classed as in vitro ADME. As to conditions: Mice liver microsomes; for CLint scaled / half-life: mouse; for half-life: NADPH, 37° C. The protocol:
as §1, §2, §3

The nature of series [6]: Liver microsome stability, dogs. The series is classed as in vitro ADME. As to conditions: Dogs liver microsomes; for CLint scaled / half-life: dog; for half-life: NADPH, 37° C. The protocol: as §1, §2, §3
Series [7] in a line: Liver microsome stability, monkeys. The series is classed as in vitro ADME. Particulars: Monkeys liver microsomes; for CLint scaled / half-life: monkey; for half-life: NADPH, 37° C. The procedure: as §1, §2, §3

One may read the IC50 as the concentration that inhibits the measured activity by half. Read a low IC50 as greater potency. The term AUC(0-t) denotes the area under the concentration-time curve up to a stated or last time point. A low value points to less exposure. The term Cmax denotes the maximum level reached in the sampled fluid or tissue. Usually Tmax stands for the time at which the peak concentration occurs. In general, half-life refers to the time needed for the level to fall by half in the phase considered. High values mean slow decline, low ones rapid decline. By CLint scaled is commonly meant the rate of metabolic loss divided by the concentration. The low end stands for slow turnover, the high end for rapid turnover. In series [1], `CC(C)(O)Cn1nc(F)c2cc(-c3c(C#N)cc(N4CCC(N)CC4)nc3-c3ccc(C#N)c(F)c3)c(F)cc21` [Compound 36, 6-(4-aminopiperid-1-yl)-2-(4-cyano-3-fluorophenyl)-3-(3,6-difluoro-1-(2-hydroxyl-2-methylpropyl)-1H-indazol-5-yl)isonicotinonitrile] displayed a half-inhibitory concentration (IC50) of 4 nM. In series [2], the AUC(0-t) worked out at 769 ± 361 ng·h/mL. This compound also returned a Cmax in series [2] of 100 ± 54.4 ng/mL. For the same compound, in series [2], the time of peak concentration (Tmax) is 4.67 ± 1.15 h. Also, the half-life in series [2] is 3.57 ± 0.34 h; in series [3], > 2.42 h; in series [4], > 2.42 h; in series [5], > 2.42 h; in series [6], > 2.42 h; in series [7], 1.84 h. For the same compound, the “Remaining (T = 60 min)” value in series [3] is reported as 81.7%; in series [4], 76.1%; in series [5], 75.5%; in series [6], 76.3%; in series [7] it was 72.1%. Also, the CLint scaled in series [3] is < 8.6 mL/min/kg; in series [4], < 17.3 mL/min/kg; in series [5], < 38 mL/min/kg; in series [6], < 13.8 mL/min/kg; in series [7], 16.9 mL/min/kg.

In turn, `CC(C)(O)Cn1ncc2cc(-c3c(C#N)cc(N4CCC(N)CC4)nc3-c3ccc(C#N)c(F)c3)c(F)cc21` [Compound 16, 6-(4-aminopiperid-1-yl)-2-(4-cyano-3-fluorophenyl)-3-(6-fluoro-1-(2-hydroxyl-2-methylpropyl)-1H-indazol-5-yl)isonicotinonitrile] yielded a 50% inhibitory concentration (IC50) in series [1] of 2.79 nM. This compound also gave an AUC(0-t) in series [2] of 561 ± 347 ng·h/mL. The compound also displayed a Cmax in series [2] of 69.9 ± 33.5 ng/mL. For the same compound, in series [2], the Tmax turned out to be 4 h. The half-life in series [2] is 3.46 ± 0.02 h; in series [3], > 2.42 h; in series [4] it was > 2.42 h; in series [5] it was > 2.42 h; in series [6], > 2.42 h; in series [7], 1.62 h. The “Remaining (T = 60 min)” value in series [3] amounted to 70.8%; in series [4], 72.1%; in series [5], 77.8%; in series [6], 76.4%; in series [7], 62.0%. In addition, the CLint scaled in series [3] is < 8.6 mL/min/kg; in series [4], < 17.3 mL/min/kg; in series [5], < 38 mL/min/kg; in series [6], < 13.8 mL/min/kg; in series [7], 19.2 mL/min/kg.

`COc1ccc(-c2c(-c3ccc(C#N)c(F)c3)nc(N3CCC(N)CC3)n(C)c2=O)cc1F` [CC-90011, reference compound] registered a half-inhibitory concentration (IC50) in series [1] of 22.9 nM. Further, in series [2], the area under the curve AUC(0-t) was determined as 356 ± 46.5 ng·h/mL, the Cmax was determined as 48.9 ± 12.5 ng/mL, the time of peak concentration (Tmax) is 3.33 ± 2.31 h and the half-life is 1.44 ± 0.52 h. In series [3], the “Remaining (T = 60 min)” value was 67.2%, the CLint scaled came out at 13.2 mL/min/kg and the half-life came to 1.57 h. Further, in series [4], the “Remaining (T = 60 min)” value was 58.6%, the CLint scaled turned out to be 31.2 mL/min/kg and the half-life was found to be 1.33 h. Further, in series [5], the “Remaining (T = 60 min)” value is reported as 72.2%, the intrinsic metabolic clearance (CLint scaled) came to 42.2 mL/min/kg and the half-life came out at 2.17 h. For the same compound, in series [6], the “Remaining (T = 60 min)” value is on record as 76.6%, the CLint scaled is 15.8 mL/min/kg and the half-life turned out to be 2.1 h. In series [7], the “Remaining (T = 60 min)” value was found to be 56.8%, the intrinsic metabolic clearance (CLint scaled) worked out at 25 mL/min/kg and the half-life was determined as 1.25 h.
